Earlier results in US5346895A, “Chromans and thiochromans with heteroarylethynyl substituents at the 7-position having retinoid-like biological activity” (Allergan, Inc., priority 1993, dated 1994).

System: ornithine decarboxylase (ODC), TPA induced ODC activity
Details: result in words, retinoic acid, background knowledge

## CC1=C(/C=C/C(C)=C/C=C/C(C)=C/C(=O)O)C(C)(C)CCC1 [Retinoic acid]
  inhibition of induction of ODC activity by TPA: inhibits this induction of ODC activity by TPA
